Source: patent US10344060B2 (priority 2013, dated 2019)

What was measured:
Assay in all cases: cell-based
hNav1.5 = hNav1.5 (Homo sapiens, UniProt Q14524); settings: IonWorks Quattro; Table 6; read-out: IC50 (μM) Nav1.5
hNav1.7 = hNav1.7 (Homo sapiens, UniProt Q15858); settings: read-out: IC50 (μM) Nav1.7
hNav1.4 = hNav1.4 (Homo sapiens, UniProt P35499); assay type: cell-based; settings: Table 6; for IC50: IonWorks Quattro, read-out: IC50 (μM) Nav1.4; for Nav1.4/Nav1.7: ratio of IonWorks Quattro IC50 values
hNav1.3 = hNav1.3 (Homo sapiens, UniProt Q9NY46); settings: IonWorks Quattro; Table 6; read-out: IC50 (μM) Nav1.3
hNav1.3, sequence (Q9NY46 whole entry): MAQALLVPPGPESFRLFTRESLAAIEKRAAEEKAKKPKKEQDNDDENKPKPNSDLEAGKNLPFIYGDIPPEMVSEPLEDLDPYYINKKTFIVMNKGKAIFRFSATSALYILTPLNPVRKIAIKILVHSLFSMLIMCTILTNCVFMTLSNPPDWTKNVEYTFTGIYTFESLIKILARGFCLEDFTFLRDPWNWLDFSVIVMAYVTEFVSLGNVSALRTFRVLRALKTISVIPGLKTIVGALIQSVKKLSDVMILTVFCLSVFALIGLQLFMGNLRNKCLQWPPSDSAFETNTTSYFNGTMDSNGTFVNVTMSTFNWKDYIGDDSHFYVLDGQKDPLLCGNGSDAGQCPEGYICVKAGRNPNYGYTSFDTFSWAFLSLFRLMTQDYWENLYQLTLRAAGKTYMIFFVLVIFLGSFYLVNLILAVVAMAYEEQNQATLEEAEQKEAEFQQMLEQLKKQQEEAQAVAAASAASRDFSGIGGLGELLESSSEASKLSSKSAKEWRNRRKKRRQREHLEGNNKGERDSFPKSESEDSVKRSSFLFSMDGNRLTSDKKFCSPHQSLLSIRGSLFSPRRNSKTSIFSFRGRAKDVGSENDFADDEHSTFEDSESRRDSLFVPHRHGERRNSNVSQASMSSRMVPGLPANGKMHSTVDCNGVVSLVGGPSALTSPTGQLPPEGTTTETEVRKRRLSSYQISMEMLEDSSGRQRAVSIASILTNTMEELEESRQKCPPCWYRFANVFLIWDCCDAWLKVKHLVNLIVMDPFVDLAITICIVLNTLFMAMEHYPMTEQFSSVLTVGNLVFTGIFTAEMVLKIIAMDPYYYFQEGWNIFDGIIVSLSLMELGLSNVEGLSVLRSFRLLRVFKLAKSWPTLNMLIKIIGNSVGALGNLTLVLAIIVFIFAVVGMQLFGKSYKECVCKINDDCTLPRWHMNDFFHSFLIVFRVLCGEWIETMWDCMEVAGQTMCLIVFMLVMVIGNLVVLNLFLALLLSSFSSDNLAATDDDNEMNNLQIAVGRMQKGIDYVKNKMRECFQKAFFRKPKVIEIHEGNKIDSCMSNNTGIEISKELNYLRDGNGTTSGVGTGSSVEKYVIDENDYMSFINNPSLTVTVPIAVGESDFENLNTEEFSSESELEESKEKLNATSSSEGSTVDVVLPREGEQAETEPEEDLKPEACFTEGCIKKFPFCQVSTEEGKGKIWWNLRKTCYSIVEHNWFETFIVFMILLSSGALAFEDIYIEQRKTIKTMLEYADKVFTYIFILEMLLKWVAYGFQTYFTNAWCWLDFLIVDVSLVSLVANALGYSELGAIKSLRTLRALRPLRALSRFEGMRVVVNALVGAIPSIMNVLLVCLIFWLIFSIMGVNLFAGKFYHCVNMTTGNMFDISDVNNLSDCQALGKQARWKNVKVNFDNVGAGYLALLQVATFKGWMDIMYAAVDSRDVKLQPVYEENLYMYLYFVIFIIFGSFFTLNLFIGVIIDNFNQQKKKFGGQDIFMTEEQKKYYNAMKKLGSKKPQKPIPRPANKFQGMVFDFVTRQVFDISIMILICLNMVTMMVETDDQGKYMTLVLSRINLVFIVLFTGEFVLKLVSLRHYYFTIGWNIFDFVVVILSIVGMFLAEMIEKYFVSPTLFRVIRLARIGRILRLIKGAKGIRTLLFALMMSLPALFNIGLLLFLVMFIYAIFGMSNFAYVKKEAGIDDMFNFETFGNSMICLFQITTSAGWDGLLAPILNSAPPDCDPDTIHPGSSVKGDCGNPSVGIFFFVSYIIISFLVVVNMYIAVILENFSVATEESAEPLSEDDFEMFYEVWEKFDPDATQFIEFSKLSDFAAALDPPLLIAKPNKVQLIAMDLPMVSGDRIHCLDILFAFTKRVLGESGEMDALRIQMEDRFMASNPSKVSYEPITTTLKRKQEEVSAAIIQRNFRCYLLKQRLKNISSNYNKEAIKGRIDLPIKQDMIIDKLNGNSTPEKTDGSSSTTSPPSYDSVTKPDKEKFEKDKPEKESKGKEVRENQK

hNav1.7, sequence (Q15858 whole entry): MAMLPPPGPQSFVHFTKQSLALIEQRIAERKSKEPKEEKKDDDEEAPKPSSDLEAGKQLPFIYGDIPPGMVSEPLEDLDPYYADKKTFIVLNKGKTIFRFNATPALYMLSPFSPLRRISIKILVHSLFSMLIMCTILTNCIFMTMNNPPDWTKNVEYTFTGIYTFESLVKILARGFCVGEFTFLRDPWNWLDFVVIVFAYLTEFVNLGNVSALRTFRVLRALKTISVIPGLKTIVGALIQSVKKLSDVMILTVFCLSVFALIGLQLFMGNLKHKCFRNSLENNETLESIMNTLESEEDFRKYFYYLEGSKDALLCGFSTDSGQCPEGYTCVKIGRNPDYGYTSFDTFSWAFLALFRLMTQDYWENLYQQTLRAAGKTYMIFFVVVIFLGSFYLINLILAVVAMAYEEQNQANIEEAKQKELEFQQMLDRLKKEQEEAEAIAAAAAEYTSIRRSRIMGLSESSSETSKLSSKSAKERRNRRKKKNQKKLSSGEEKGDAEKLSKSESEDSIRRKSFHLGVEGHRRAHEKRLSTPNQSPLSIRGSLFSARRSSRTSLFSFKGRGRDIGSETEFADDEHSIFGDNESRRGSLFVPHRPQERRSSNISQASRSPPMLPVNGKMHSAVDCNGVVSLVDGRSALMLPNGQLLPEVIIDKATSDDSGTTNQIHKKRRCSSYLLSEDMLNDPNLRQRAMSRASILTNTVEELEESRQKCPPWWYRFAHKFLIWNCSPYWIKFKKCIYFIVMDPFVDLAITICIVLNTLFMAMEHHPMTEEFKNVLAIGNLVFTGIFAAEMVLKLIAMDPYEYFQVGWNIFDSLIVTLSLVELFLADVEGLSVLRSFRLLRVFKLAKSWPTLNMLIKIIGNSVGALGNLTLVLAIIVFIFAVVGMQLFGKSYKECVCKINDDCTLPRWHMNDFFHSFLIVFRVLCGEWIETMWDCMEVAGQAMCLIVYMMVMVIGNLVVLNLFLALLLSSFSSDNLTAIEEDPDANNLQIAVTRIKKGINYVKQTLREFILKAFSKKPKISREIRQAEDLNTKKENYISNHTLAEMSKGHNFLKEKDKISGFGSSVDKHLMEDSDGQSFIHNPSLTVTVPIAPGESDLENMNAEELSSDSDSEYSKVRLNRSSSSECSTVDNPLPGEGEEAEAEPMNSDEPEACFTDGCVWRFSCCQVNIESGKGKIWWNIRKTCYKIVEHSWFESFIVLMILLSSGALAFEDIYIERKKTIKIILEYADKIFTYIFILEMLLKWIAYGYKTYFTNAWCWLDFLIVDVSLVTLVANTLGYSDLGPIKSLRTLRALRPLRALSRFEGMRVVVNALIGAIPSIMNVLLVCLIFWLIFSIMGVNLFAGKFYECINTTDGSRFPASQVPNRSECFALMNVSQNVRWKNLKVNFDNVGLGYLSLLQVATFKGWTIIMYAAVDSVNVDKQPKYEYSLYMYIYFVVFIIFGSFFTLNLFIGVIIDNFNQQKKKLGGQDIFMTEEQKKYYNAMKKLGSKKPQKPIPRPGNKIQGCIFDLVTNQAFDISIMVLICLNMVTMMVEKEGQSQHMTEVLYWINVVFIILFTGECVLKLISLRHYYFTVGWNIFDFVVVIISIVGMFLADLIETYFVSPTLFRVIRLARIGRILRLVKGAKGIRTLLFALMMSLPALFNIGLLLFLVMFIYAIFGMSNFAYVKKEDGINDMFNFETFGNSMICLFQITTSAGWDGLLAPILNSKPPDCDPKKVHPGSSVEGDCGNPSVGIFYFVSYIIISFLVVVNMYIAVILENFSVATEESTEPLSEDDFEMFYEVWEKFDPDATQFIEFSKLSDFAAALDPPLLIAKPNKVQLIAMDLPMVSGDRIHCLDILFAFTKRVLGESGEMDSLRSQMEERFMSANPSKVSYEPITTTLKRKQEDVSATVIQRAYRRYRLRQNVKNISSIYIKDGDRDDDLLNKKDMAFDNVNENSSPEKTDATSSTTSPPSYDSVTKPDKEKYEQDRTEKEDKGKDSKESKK

| SMILES | IC50 (hNav1.5) | IC50 (hNav1.7) | IC50 (hNav1.4) | Nav1.4/Nav1.7 (hNav1.4) | IC50 (hNav1.3) |
| --- | --- | --- | --- | --- | --- |
| CC[C@H](C)[C@H](NC(=O)[C@H](C)NC(=O)[C@H](CCCCN)NC(=O)[C@H](CCCNC(=N)N)NC(=O)[C@@H]1CSSC[C@@H]2NC(=O)[C@H](C)NC(=O)[C@H](CCCNC(=N)N)NC(=O)[C@H](CCCCN)NC(=O)[C@H](CO)NC(=O)[C@H](CC(=O)O)NC(=O)[C@@H]3CSSC[C@H](NC(=O)[C@H](CCCNC(=N)N)NC(=O)[C@H](CC(C)C)NC(=O)CNC(=O)[C@H](CCC(=O)O)NC(=O)[C@H](CSSC[C@H](NC(=O)[C@@H](N)Cc4ccc(O)cc4)C(=O)N[C@@H](CCC(N)=O)C(=O)N[C@@H](CCCCN)C(=O)N[C@@H](Cc4c[nH]c5ccccc45)C(=O)N[C@@H](CCSC)C(=O)N[C@@H](Cc4c[nH]c5ccccc45)C(=O)N[C@@H]([C@@H](C)O)C(=O)N3)NC2=O)C(=O)N[C@@H](CCCCN)C(=O)N[C@@H](CC(C)C)C(=O)N[C@@H](Cc2c[nH]c3ccccc23)C(=O)N1)C(N)=O [compound 23] | > 5 µM | 0.03 µM | 0.29 µM | 10 | 0.25 µM |
| CC[C@H](C)[C@H](NC(=O)[C@H](CCCCN)NC(=O)[C@H](CCCNC(=N)N)NC(=O)[C@@H]1CSSC[C@@H]2NC(=O)[C@H](C)NC(=O)[C@H](CCCNC(=N)N)NC(=O)[C@H](CCCCN)NC(=O)[C@H](CO)NC(=O)[C@H](CC(=O)O)NC(=O)[C@@H]3CSSC[C@H](NC(=O)[C@H](CCCNC(=N)N)NC(=O)[C@H](CC(C)C)NC(=O)CNC(=O)[C@H](CCC(=O)O)NC(=O)[C@H](CSSC[C@H](NC(=O)[C@@H](N)Cc4ccc(O)cc4)C(=O)N[C@@H](CCC(N)=O)C(=O)N[C@@H](CCCCN)C(=O)N[C@@H](Cc4c[nH]c5ccccc45)C(=O)N[C@@H](CCSC)C(=O)N[C@@H](Cc4c[nH]c5ccccc45)C(=O)N[C@@H]([C@@H](C)O)C(=O)N3)NC2=O)C(=O)N[C@@H](CCCCN)C(=O)N[C@@H](CC(C)C)C(=O)N[C@@H](Cc2c[nH]c3ccccc23)C(=O)N1)C(=O)N[C@@H](C)C(N)=O [compound 24] | > 5 µM | 0.053 µM | 0.27 µM | 5 | 0.45 µM |
| CC[C@H](C)[C@H](NC(=O)[C@@H](NC(=O)[C@H](CCCCN)NC(=O)[C@H](CCCNC(=N)N)NC(=O)[C@@H]1CSSC[C@@H]2NC(=O)[C@H](C)NC(=O)[C@H](CCCNC(=N)N)NC(=O)[C@H](CCCCN)NC(=O)[C@H](CO)NC(=O)[C@H](CC(=O)O)NC(=O)[C@@H]3CSSC[C@H](NC(=O)[C@H](CCCNC(=N)N)NC(=O)[C@H](CC(C)C)NC(=O)CNC(=O)[C@H](CCC(=O)O)NC(=O)[C@H](CSSC[C@H](NC(=O)[C@@H](N)Cc4cccc5ccccc45)C(=O)N[C@@H](CCC(N)=O)C(=O)N[C@@H](CCCCN)C(=O)N[C@@H](Cc4c[nH]c5ccccc45)C(=O)N[C@@H](CCSC)C(=O)N[C@@H](Cc4c[nH]c5ccccc45)C(=O)N[C@@H]([C@@H](C)O)C(=O)N3)NC2=O)C(=O)N[C@@H](CCCCN)C(=O)N[C@@H](CC(C)C)C(=O)N[C@@H](Cc2c[nH]c3ccccc23)C(=O)N1)[C@@H](C)CC)C(N)=O [compound 25] | 2.3 µM | 0.008 µM | 0.09 µM | 10 | 0.07 µM |
| CC[C@H](C)[C@H](NC(=O)[C@@H](NC(=O)[C@H](CCCCN)NC(=O)[C@H](CCCNC(=N)N)NC(=O)[C@@H]1CSSC[C@@H]2NC(=O)[C@H](C)NC(=O)[C@H](CCCNC(=N)N)NC(=O)[C@H](CCCCN)NC(=O)[C@H](CO)NC(=O)[C@H](CC(=O)O)NC(=O)[C@@H]3CSSC[C@H](NC(=O)[C@H](CCCNC(=N)N)NC(=O)[C@H](CC(C)C)NC(=O)CNC(=O)[C@H](CCC(=O)O)NC(=O)[C@H](CSSC[C@H](NC(=O)[C@@H](N)Cc4ccc(O)cc4)C(=O)N[C@@H](CCC(N)=O)C(=O)N[C@@H](CCCCN)C(=O)N[C@@H](Cc4c[nH]c5ccccc45)C(=O)N[C@@H](CCSC)C(=O)N[C@@H](Cc4c[nH]c5ccccc45)C(=O)N[C@@H]([C@@H](C)O)C(=O)N3)NC2=O)C(=O)N[C@@H](CCCCN)C(=O)N[C@@H](CC(C)C)C(=O)N[C@@H](Cc2cccc3ccccc23)C(=O)N1)[C@@H](C)CC)C(N)=O [compound 43] | > 5 µM | 0.075 µM | 0.33 µM | 4 | 0.46 µM |
